Where a name gives a salt, the structure may show the parent alone.
Legend:
hepatic ACAT = test: Hepatic ACAT inhibitory activity (rabbit liver microsomes, [1-14C]-oleoyl CoA); type: biochemical, Japanese white rabbits; conditions: Concentration: 10^-6 M; inhibition of cholesteryl oleate production vs control
Protocol: A high cholesterol feed [a feed added with cholesterol (1%), Clea Japan, Inc.] was fed to male Japanese white rabbits weighing 2-2.5 kg at 100 g per day and the rabbits were bred for 4 weeks. The rabbits were killed by bleeding under anesthesia and liver was removed. The liver was homogenated, and the homogenate was centrifuged at 4° C. and 10,000 rpm for 15 min. The obtained supernatant was further centrifuged at 4° C. and 41,000 rpm for 60 minutes to give microsomal fractions. The microsomal suspension as an enzyme sample, dimethyl sulfoxide (DMSO, […]) or a test compound dissolved in DMSO (test compound solution 3 μl), and reaction substrate [1-^14C]-oleoyl CoA were added to 0.15 M phosphate buffer to the total amount of 300 μl. After incubation at 37° C. for 20 minutes, a chloroform-methanol mixture was added to stop the reaction. Water was added thereto and mixed, and the chloroform layer was separated. The solvent was evaporated to dryness, and the residue was redissolved in n-hexane. The mixture was subjected to thin layer chromatography using a silica gel plate. The spots of cholesteryl oleate on the silica gel plate were scraped, and quantitatively assayed on lo a liquid scintillation counter.

[1] = tested on: THP-1 cell-derived macrophages; test: THP-1 cell-derived macrophage foam cell formation suppressing effect (cholesterol ester accumulation inhibitory effect); type: cell-based; conditions: Concentration: 10^-6 M, acetyl LDL, 3 days culture; for inhibition at 1 µM: Homo sapiens, THP-1, 72 h, read-out: foam cell formation inhibitory rate (%)
Protocol: THP-1 (Dainippon Pharmaceutical Co., Ltd.) cells were passage cultured in RPMI-1640 medium supplemented with 10% fetal bovine serum (FBS), and the cells of passages 6-13 after purchase were used. The cells were suspended in FBS-containing RPMI-1640 medium to give a suspension having a concentration of 4×10^5 cells/mL. The cell suspension was inoculated to a 12 well microplate by 1 mL, and treated with phorbol 12-myristate 13-acetate (PMA, 200 nM) as a differentiation inducing agent into macrophage. Then acetyl LDL 400 μg/mL prepared separately from plasma-derived LDL of genetically hyperlipidemia rabbit (KHC rabbit, Japan Laboratory Animals, Inc.) was added. In addition, a test compound dissolved in DMSO and diluted with FBS-containing RPMI-1640 medium or a control solvent was added. After culture in a carbon dioxide incubator for 3 days, the cells were washed with phosphate buffered physiological saline (pH 7.0), and the lipid was extracted with n-hexane/isopropanol (3:2). The cells were dissolved in 1M-NaOH and the protein amount was measured. The free cholesterol and cholesterol ester in a lipid extraction sample was measured by the method of Kunitomo et al. (1983). The cholesterol ester was compared between the control cell and the test compound-treated cells, and the cholesterol ester accumulation inhibitory rate of the test compound was calculated.

CCCCCCCCN1CCc2c(C)c([N+](=O)[O-])c(C)c(NC(=O)C(C)(C)C)c21 [Example 1, N-(4,6-dimethyl-5-nitro-1-octylindolin-7-yl)-2,2-dimethylpropanamide]
Hepatic ACAT inhibitory ratio (%) (hepatic ACAT): 97.4%

CCCCCCCCN1CCc2c(C)c(NS(=O)(=O)NC(C)=O)c(C)c(NC(=O)C(C)(C)C)c21 [Example 3, N-[5-(N-acetylsulfamoylamino)-4,6-dimethyl-1-octylindolin-7-yl]-2,2-dimethylpropanamide]
Hepatic ACAT inhibitory ratio (%) (hepatic ACAT): 89.3%

CCCCCCCCN1CCc2c(C)c(NS(=O)(=O)NC(=O)OC)c(C)c(NC(=O)C(C)(C)C)c21 [Example 4, N-[5-(N-methoxycarbonylsulfamoylamino)-4,6-dimethyl-1-octylindolin-7-yl]-2,2-dimethylpropanamide]
Hepatic ACAT inhibitory ratio (%) (hepatic ACAT): 75.8%

CCCCCCCCN1CCc2c(C)c(NS(N)(=O)=O)c(C)c(NC(=O)C(C)(C)C)c21.Cl [Example 6, N-(4,6-dimethyl-1-octyl-5-sulfamoylaminoindolin-7-yl)-2,2-dimethylpropanamide hydrochloride]
Hepatic ACAT inhibitory ratio (%) (hepatic ACAT): 97.4%
inhibition at 1 µM [1]: 91.2%

CCCCCCCCN1CCc2c(C)c(NC(N)=O)c(C)c(NC(=O)C(C)(C)C)c21.Cl [Example 7, N-(4,6-dimethyl-1-octyl-5-ureidoindolin-7-yl)-2,2-dimethylpropanamide hydrochloride]
Hepatic ACAT inhibitory ratio (%) (hepatic ACAT): 95.7%
inhibition at 1 µM [1]: 90.9%

CCCCCCCCCC(C)(C)C(=O)Nc1c(C)c2c(c(NS(C)(=O)=O)c1C)NCC2 [Example 8, N-(7-methanesulfonylamino-4,6-dimethylindolin-5-yl)-2,2-dimethylundecanamide]
Hepatic ACAT inhibitory ratio (%) (hepatic ACAT): 96.3%
inhibition at 1 µM [1]: 89.2%

CCCCCCCCCC(C)(C)C(=O)Nc1c(C)c2c(c(NS(C)(=O)=O)c1C)N(C)CC2 [Example 9, N-(7-methanesulfonylamino-1,4,6-trimethylindolin-5-yl)-2,2-dimethylundecanamide]
inhibition at 1 µM [1]: 70.9%

CCCCCCCCN1CCc2c(C)c(CNS(C)(=O)=O)c(C)c(NC(=O)C(C)(C)C)c21.Cl [Example 10, N-(5-methanesulfonylaminomethyl-4,6-dimethyl-1-octylindolin-7-yl)-2,2-dimethylpropanamide hydrochloride]
Hepatic ACAT inhibitory ratio (%) (hepatic ACAT): 87.3%

CCCCN1CCc2c(C)c(NS(N)(=O)=O)c(C)c(NC(=O)C(C)(C)C)c21.Cl [Example 19, N-(1-butyl-4,6-dimethyl-5-sulfamoylaminoindolin-7-yl)-2,2-dimethylpropanamide hydrochloride]
Hepatic ACAT inhibitory ratio (%) (hepatic ACAT): 93.4%
inhibition at 1 µM [1]: 73.3%

Cc1c2c(c(NC(=O)C(C)(C)C)c(C)c1NS(N)(=O)=O)N(CCC(C)C)CC2.Cl [Example 20, N-[1-(3-methylbutyl)-4,6-dimethyl-5-sulfamoylaminoindolin-7-yl]-2,2-dimethylpropanamide hydrochloride]
Hepatic ACAT inhibitory ratio (%) (hepatic ACAT): 95.7%
inhibition at 1 µM [1]: 74.7%

Cc1c2c(c(NC(=O)C(C)(C)C)c(C)c1NS(N)(=O)=O)N(CC(C)C)CC2.Cl [Example 21, N-[1-(2-methylpropyl)-4,6-dimethyl-5-sulfamoylaminoindolin-7-yl]-2,2-dimethylpropanamide hydrochloride]
Hepatic ACAT inhibitory ratio (%) (hepatic ACAT): 92.7%
inhibition at 1 µM [1]: 77.1%

CCCCCCCCCC(C)(C)C(=O)Nc1c(C)c2c(c(NS(=O)(=O)C(C)C)c1C)NCC2.Cl [Example 23, N-[4,6-dimethyl-7-(2-propanesulfonylamino)indolin-5-yl]-2,2-dimethylundecanamide hydrochloride]
Hepatic ACAT inhibitory ratio (%) (hepatic ACAT): 96.2%
inhibition at 1 µM [1]: 90.5%

CCCCCCC(C)(C)C(=O)Nc1c(C)c2c(c(NS(=O)(=O)C(C)C)c1C)NCC2 [Example 24, N-[4,6-dimethyl-7-(2-propanesulfonylamino)indolin-5-yl]-2,2-dimethyloctanamide]
Hepatic ACAT inhibitory ratio (%) (hepatic ACAT): 95.7%
inhibition at 1 µM [1]: 90.5%

CCCCCCCCCC(C)(C)C(=O)Nc1c(C)c2c(c(NS(=O)(=O)c3ccc(C)cc3)c1C)NCC2 [Example 25, N-[4,6-dimethyl-7-(p-toluene)sulfonylaminoindolin-5-yl]-2,2-dimethylundecanamide]
Hepatic ACAT inhibitory ratio (%) (hepatic ACAT): 94.3%
foam cell formation inhibitory rate (%) [1]: 89.4%

CCCCCCCCCC(C)(C)C(=O)Nc1c(C)c2c(c(NS(N)(=O)=O)c1C)NCC2.Cl [Example 26, N-(4,6-dimethyl-7-sulfamoylaminoindolin-5-yl)-2,2-dimethylundecanamide hydrochloride]
Hepatic ACAT inhibitory ratio (%) (hepatic ACAT): 95.4%
inhibition at 1 µM [1]: 75.3%

CCCCCCCCCC(C)(C)C(=O)Nc1c(C)c2c(c(NC(N)=O)c1C)NCC2 [Example 27, N-(4,6-dimethyl-7-ureidoindolin-5-yl)-2,2-dimethylundecanamide]
Hepatic ACAT inhibitory ratio (%) (hepatic ACAT): 78.6%

CCCCCCCCS(=O)(=O)Nc1c(C)c(NC(=O)C(C)(C)C)c(C)c2c1NCC2 [Example 29, N-[4,6-dimethyl-7-(1-octanesulfonylamino)indolin-5-yl]-2,2-dimethylpropanamide]
Hepatic ACAT inhibitory ratio (%) (hepatic ACAT): 79.5%

Cc1c2c(c(NC(=O)C(C)(C)C)c(C)c1NS(N)(=O)=O)N(C1CCCC1)CC2.Cl [Example 43, N-(1-cyclopentyl-4,6-dimethyl-5-sulfamoylaminoindolin-7-yl)-2,2-dimethylpropanamide hydrochloride]
Hepatic ACAT inhibitory ratio (%) (hepatic ACAT): 90.9%
inhibition at 1 µM [1]: 58.7%

CCOCCN1CCc2c(C)c(NS(N)(=O)=O)c(C)c(NC(=O)C(C)(C)C)c21.Cl [Example 46, N-[1-(2-ethoxyethyl)-4,6-dimethyl-5-sulfamoylaminoindolin-7-yl]-2,2-dimethylpropanamide hydrochloride]
Hepatic ACAT inhibitory ratio (%) (hepatic ACAT): 89.2%
inhibition at 1 µM [1]: 59.1%

CCCN1c2c(c(C)c(NS(N)(=O)=O)c(C)c2NC(=O)C(C)(C)C)CC1COC.Cl (stereo not shown) [Example 50, N-(2-methoxymethyl-4,6-dimethyl-1-propyl-5-sulfamoylaminoindolin-7-yl)-2,2-dimethylpropanamide hydrochloride]
Hepatic ACAT inhibitory ratio (%) (hepatic ACAT): 86.2%
inhibition at 1 µM [1]: 73.6%

CCCN1c2c(c(C)c(NS(N)(=O)=O)c(C)c2NC(=O)C(C)(C)C)CC1COCC (stereo not shown) [Example 51, N-(2-ethoxymethyl-4,6-dimethyl-1-propyl-5-sulfamoylaminoindolin-7-yl)-2,2-dimethylpropanamide hydrochloride]
inhibition at 1 µM [1]: 86%

CCOCCN1c2c(c(C)c(NS(N)(=O)=O)c(C)c2NC(=O)C(C)(C)C)CC1C (stereo not shown) [Example 54, N-[1-(2-ethoxyethyl)-2,4,6-trimethyl-5-sulfamoylaminoindolin-7-yl]-2,2-dimethylpropanamide hydrochloride]
inhibition at 1 µM [1]: 64.5%

CCSCCN1CCc2c(C)c(NS(N)(=O)=O)c(C)c(NC(=O)C(C)(C)C)c21.Cl [Example 60, N-[1-(2-ethylthioethyl)-4,6-dimethyl-5-sulfamoylaminoindolin-7-yl]-2,2-dimethylpropanamide hydrochloride]
Hepatic ACAT inhibitory ratio (%) (hepatic ACAT): 97.2%

CSCCN1CCc2c(C)c(NS(N)(=O)=O)c(C)c(NC(=O)C(C)(C)C)c21.Cl [Example 61, N-[4,6-dimethyl-1-(2-methylthioethyl)-5-sulfamoylaminoindolin-7-yl]-2,2-dimethylpropanamide hydrochloride]
Hepatic ACAT inhibitory ratio (%) (hepatic ACAT): 95.4%

Reference: patent US7429612B2, “Indoline compound and medicinal use thereof” (Kyoto Pharmaceutical Industries, Ltd., priority 2002, dated 2008)
